Data on 31 molecules can be found in patent publication US8273769B2, “Phenoxy acetic acid derivatives” (Merck Serono SA, priority 2009, dated 2012).

By IC50 is commonly meant the concentration that inhibits the measured activity by half. A higher IC50 goes with a need for much substance.

This assay has as its target T1, CRTH2 (Homo sapiens, UniProt Q9Y5Y4).
T1 sequence (Q9Y5Y4 1-395): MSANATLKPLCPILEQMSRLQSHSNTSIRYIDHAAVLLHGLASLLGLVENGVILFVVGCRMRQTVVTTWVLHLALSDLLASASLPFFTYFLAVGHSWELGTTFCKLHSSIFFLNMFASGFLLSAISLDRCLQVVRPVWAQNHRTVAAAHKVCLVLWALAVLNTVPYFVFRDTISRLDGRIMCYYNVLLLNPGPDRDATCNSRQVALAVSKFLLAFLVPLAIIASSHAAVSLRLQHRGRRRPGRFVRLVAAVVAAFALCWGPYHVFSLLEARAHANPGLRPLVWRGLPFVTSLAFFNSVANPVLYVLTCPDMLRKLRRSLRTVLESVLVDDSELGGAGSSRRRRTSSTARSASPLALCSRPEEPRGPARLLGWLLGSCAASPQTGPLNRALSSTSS
Kind of assay: Radioligand binding Scintillation Proximity Assay ([3H]PGD2, hCRTH2-CHO cell membranes). The arrangement: host or cells: CHO cells. Conditions: 1.5 nM [3H]PGD2, hCRTH2-CHO cell membranes, SPA. The procedure:
Adherent CHO cells expressing hCRTH2 (Euroscreen, Belgium) were cultured in 225 cm^2 cell culture flasks (Corning, USA) in 30 ml of medium. After two rinses of phosphate buffered saline (PBS), cells were harvested in 10 ml of PBS containing 1 mM EDTA, centrifuged at 500×g for 5 min at 4° C. and frozen at −80° C. The pellet was re-suspended in 50 mM Tris-HCl, pH 7.4, 2 mM EDTA, 250 mM Sucrose, containing protease inhibitor cocktail tablets, (Complete EDTA-free, Roche, Germany) and incubated 30 min at 4° C. Cells were disrupted by nitrogen cavitation (Parr Instruments, USA) at 4° C. (800 p.s.i. for 30 min), and centrifuged at 500×g for 10 min at 4° C. Pellet containing nuclei and cellular debris was discarded and supernatant was centrifuged 60 min at 4° C. at 45000×g. Membrane pellet was re-suspended in storage buffer (10 mM HEPES/KOH pH 7.4, 1 mM EDTA, 250 mM sucrose, protease inhibitor cocktail tablets) using Dounce homogenization and frozen in liquid nitrogen, and stored at −80° C.
The inhibitory activity can be investigated by a radioligand binding Scintillation Proximity Assay (SPA) (Sawyer et al., Br. J. Pharmocol 2002, 137, 1163-72). The SPA radioligand binding assay was performed at room temperature in binding buffer (10 mM HEPES/KOH pH 7.4, 10 mM MnCl2, with protease inhibitor cocktail tablets), containing 1.5 nM [^3H]PGD2 (Perkin Elmer), 10-50 μg/ml of hCRTH2-CHO cell membrane protein and 2 mg/ml of Wheat-germ agglutinin Sintillation Proximity Assay beads (RPNQ0001, GE-Healthcare) in a final volume of 100 μl in 96 well plates (Corning, USA). Non-specific binding was determined in the presence of 10 μM PGD2 (Cayman, USA). Competing Compounds of Formula (I) were diluted in dimethylsulphoxide so that the total volume of dimethylsulfoxide was kept constant at 1% dimethylsulphoxide (Me2SO). Serial dilutions of 100 μM to 100 pM were prepared and 10 μl each of the compounds of Formula (I) stock solutions were added to the binding assay reagents and incubated for 90 min with agitation at room temperature. Binding activity was determined by using a 1450 Micro-beta scintillation counter (Wallac, UK).
A general note: In a scintillation proximity assay essentially only radioactivity close to the scintillant gives light.
On to `CS(=O)(=O)c1ccc(N2CCCCC2)c(C#Cc2cc(Cl)ccc2OCC(=O)O)c1` [Example 57, (4-chloro-2-{[5-(methylsulfonyl)-2-piperidin-1-ylphenyl]ethynyl}phenoxy)acetic acid], for which the IC50 turned out to be 280 nM.
On to `CS(=O)(=O)c1ccc(O)c(C#Cc2cc(Cl)ccc2OCC(=O)O)c1` [Example 60, (4-chloro-2-{[2-hydroxy-5-(methylsulfonyl)phenyl]ethynyl}phenoxy)acetic acid], for which the IC50 turned out to be 296 nM.
For the molecule `CS(=O)(=O)c1ccc(Cl)c(C#Cc2cc(C#N)ccc2OCC(=O)O)c1` [Example 61, (2-{[2-chloro-5-(methylsulfonyl)phenyl]ethynyl}-4-cyanophenoxy)acetic acid], the concentration for half-maximal inhibition (IC50) is 8 nM.
Next, `CS(=O)(=O)c1ccc(N2CCCCC2)c(C#Cc2cc(C#N)ccc2OCC(=O)O)c1` [Example 62, (4-cyano-2-{[5-(methylsulfonyl)-2-piperidin-1-ylphenyl]ethynyl}phenoxy)acetic acid]: 202 nM.
Molecule `CCS(=O)(=O)c1ccc(C)c(C#Cc2cc(C#N)ccc2OCC(=O)O)c1` [Example 63, (4-cyano-2-{[5-(ethylsulfonyl)-2-methylphenyl]ethynyl}phenoxy)acetic acid] registered a half-maximal inhibitory concentration (IC50) of 33 nM.
`Cc1ccc(S(=O)(=O)CCO)cc1C#Cc1cc(C#N)ccc1OCC(=O)O` [Example 64, [4-cyano-2-({5-[(2-hydroxyethyl)sulfonyl]-2-methylphenyl}ethynyl)phenoxy]acetic acid]: the IC50 was 136 nM.
In the case of `CCCS(=O)(=O)c1cccc(C#Cc2nc(C)ccc2OCC(=O)O)c1` [Example 66, [(6-methyl-2-{[3-(propylsulfonyl)phenyl]ethynyl}pyridin-3-yl)oxy]acetic acid], the IC50 turned out to be 193 nM.
Turning to `Cc1ccc(S(=O)(=O)C(C)C)cc1C#Cc1cc(C#N)ccc1OCC(=O)O` [Example 68, (4-cyano-2-{[5-(isopropylsulfonyl)-2-methylphenyl]ethynyl}phenoxy)acetic acid], the IC50 was determined as 12 nM.
Next, `CS(=O)(=O)c1cncc(C#Cc2cc(C#N)ccc2OCC(=O)O)c1` [Example 69, (4-cyano-2-{[5-(methylsulfonyl)pyridin-3-yl}ethynyl]phenoxy)acetic acid]: 186 nM.
The molecule `CN(c1cncc(C#Cc2cc(C#N)ccc2OCC(=O)O)c1)S(C)(=O)=O` [Example 72, [4-cyano-2-({5-[methyl(methylsulfonyl)amino]pyridin-3-yl}ethynyl)phenoxy]acetic acid] came in with an IC50 of 364 nM.
In turn, `Cc1ccc(S(=O)(=O)CCCO)cc1C#Cc1cc(C#N)ccc1OCC(=O)O` [Example 73, [4-cyano-2-({5-[(3-hydroxypropyl)sulfonyl]-2-methylphenyl}ethynyl)phenoxy]acetic acid] showed a half-maximal inhibitory concentration (IC50) of 57 nM.
The molecule `CCCS(=O)(=O)c1cccc(C#Cc2c(Cl)cccc2OCC(=O)O)c1` [Example 74, (3-chloro-2-{[3-(propylsulfonyl)phenyl]ethynyl}phenoxy)acetic acid] returned a half-inhibitory concentration (IC50) of 70 nM. This IC50 and that of the molecule before are within 1.5-fold of each other.
As for `N#Cc1ccc(OCC(=O)O)c(C#Cc2cncc(S(=O)(=O)NCCO)c2)c1` [Example 75, {4-cyano-2-[(5-{[(2-hydroxyethyl)amino]sulfonyl}pyridin-3-yl)ethynyl]phenoxy}acetic acid], the figure is 372 nM.
With `N#Cc1ccc(OCC(=O)O)c(C#Cc2cncc(S(=O)(=O)N3CC(F)(F)C3)c2)c1` [Example 76, [4-cyano-2-({5-[(3,3-difluoroazetidin-1-yl)sulfonyl]pyridin-3-yl}ethynyl)phenoxy]acetic acid], the IC50 worked out at 171 nM.
As for `N#Cc1ccc(OCC(=O)O)c(C#Cc2cncc(S(=O)(=O)N3CCOCC3)c2)c1` [Example 77, (4-cyano-2-{[5-(morpholin-4-ylsulfonyl)pyridin-3-yl]ethynyl}phenoxy)acetic acid], the figure is 360 nM.
Next, `O=C(O)COc1ccc(Cl)cc1C#Cc1cncc(S(=O)(=O)N2CC(F)(F)C2)c1` [Example 78, [4-chloro-2-({5-[(3,3-difluoroazetidin-1-yl)sulfonyl]pyridin-3-yl}ethynyl)phenoxy]acetic acid]: 40 nM.
`O=C(O)COc1ccc(Cl)cc1C#Cc1cncc(S(=O)(=O)N2CCOCC2)c1` [Example 79, (4-chloro-2-{[5-(morpholin-4-ylsulfonyl)pyridin-3-yl]ethynyl}phenoxy)acetic acid] showed an IC50 of 52 nM.
Molecule `CN(C)S(=O)(=O)c1cccc(C#Cc2cc(Cl)ccc2OCC(=O)O)c1` [Example 80, [4-chloro-2-({3-[(dimethylamino)sulfonyl]phenyl}ethynyl)phenoxy]acetic acid] came in with a concentration for half-maximal inhibition (IC50) of 19 nM.
As for `CCN(CC)S(=O)(=O)c1ccc(C)c(C#Cc2cc(Cl)ccc2OCC(=O)O)c1` [Example 81, [4-chloro-2-({5-[(diethylamino)sulfonyl]-2-methylphenyl}ethynyl)phenoxy]acetic acid], the figure is 5 nM.
`Cc1ccc(S(=O)(=O)N2CCOCC2)cc1C#Cc1cc(Cl)ccc1OCC(=O)O` [Example 82, (4-chloro-2-{[2-methyl-5-(morpholin-4-ylsulfonyl)phenyl]ethynyl}phenoxy)acetic acid] came in with an IC50 of 5 nM.
In turn, `CNS(=O)(=O)c1ccc(C)c(C#Cc2cc(Cl)ccc2OCC(=O)O)c1` [Example 84, [4-chloro-2-({2-methyl-5-[(methylamino)sulfonyl]phenyl}ethynyl)phenoxy]acetic acid] had an IC50 of 13 nM.
Regarding `Cc1ccc(S(=O)(=O)NC(C)(C)C)cc1C#Cc1cc(Cl)ccc1OCC(=O)O` [Example 85, [2-({5-[(tert-butylamino)sulfonyl]-2-methylphenyl}ethynyl)-4-chlorophenoxy]acetic acid], the IC50 turned out to be 7 nM.
The molecule `Cc1ccc(S(=O)(=O)N2CCCCC2)cc1C#Cc1cc(Cl)ccc1OCC(=O)O` [Example 88, (4-chloro-2-{[2-methyl-5-(piperidin-1-ylsulfonyl)phenyl]ethynyl}phenoxy)acetic acid] returned an IC50 of 7 nM.
`CS(=O)(=O)c1ccc(C#Cc2cc(Cl)ccc2OCC(=O)O)cc1` [Example 90, (4-chloro-2-{[4-(methylsulfonyl)phenyl]ethynyl}phenoxy)acetic acid] came in with a concentration for half-maximal inhibition (IC50) of 154 nM.
`Cc1ccc(S(=O)(=O)Cc2ccccc2)cc1C#Cc1cc(Cl)ccc1OCC(=O)O` [Example 91, (2-{[5-(benzylsulfonyl)-2-methylphenyl]ethynyl}-4-chlorophenoxy)acetic acid]: the IC50 worked out at 7 nM. This IC50 lies about 22-fold lower than the previous one.
In the case of `Cc1ccc(S(=O)(=O)CCc2ccccc2)cc1C#Cc1cc(Cl)ccc1OCC(=O)O` [Example 92, [4-chloro-2-({2-methyl-5-[(2-phenylethyl)sulfonyl]phenyl}ethynyl)phenoxy]acetic acid], the IC50 came to 9 nM.
Molecule `Cc1ccc(S(=O)(=O)Cc2ccccc2)cc1C#Cc1cc(C#N)ccc1OCC(=O)O` [Example 93, (2-{[5-(benzylsulfonyl)-2-methylphenyl]ethynyl}-4-cyanophenoxy)acetic acid] returned an IC50 of 13 nM.
`Cc1ccc(S(=O)(=O)c2ccccc2)cc1C#Cc1cc(C#N)ccc1OCC(=O)O` [Example 94, (4-cyano-2-{[2-methyl-5-(phenylsulfonyl)phenyl]ethynyl}phenoxy)acetic acid] yielded an IC50 of 11 nM.
As to `Cc1ccc(S(=O)(=O)CCc2ccccc2)cc1C#Cc1cc(C#N)ccc1OCC(=O)O` [Example 96, [4-cyano-2-({2-methyl-5-[(2-phenylethyl)sulfonyl]phenyl}ethynyl)phenoxy]acetic acid], the half-inhibitory concentration (IC50) came to 7 nM.
`Cc1cc(F)c(S(C)(=O)=O)cc1C#Cc1cc(Cl)ccc1OCC(=O)O` [Example 97, (4-chloro-2-{[4-fluoro-2-methyl-5-(methylsulfonyl)phenyl]ethynyl}phenoxy)acetic acid] gave an IC50 of 8 nM. The IC50 values of the last two molecules are within 1.5-fold of each other.
For `CS(=O)(=O)Cc1cccc(C#Cc2cc(Cl)ccc2OCC(=O)O)c1` [Example 98, [4-chloro-2-({3-[(methylsulfonyl)methyl]phenyl}ethynyl)phenoxy]acetic acid], the half-maximal inhibitory concentration (IC50) stood at 60 nM.
